Assay results published in ChEMBL document CHEMBL1201862, “PubChem BioAssay data set” (2004).
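Assay format: 96-well plates, 48-hour exposure. GI50 = concentration required for 50% inhibition of growth.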 Calls of active or inactive are those of the source. No stated cut-off is given here; in the data, active = GI50 up to about 1.1 µM and inactive = higher.

Columns and labels:
Assay in all cases: NCI-60 cell line screen, 48 h
U-251 = test system: U-251
MDA-MB-435 = test system: MDA-MB-435
HCT-116 = test system: HCT-116
CCRF-CEM = test system: CCRF-CEM
SNB-75 = test system: SNB-75
OVCAR-3 = test system: OVCAR-3
HOP-62 = test system: HOP-62
SR = test system: SR
MDA-N = test system: MDA-N
SK-MEL-2 = test system: SK-MEL-2
SNB-19 = test system: SNB-19
T47D = test system: T47D
MDA-MB-231 = test system: MDA-MB-231
SN12C = test system: SN12C
HT-29 = test system: HT-29
NCI-H226 = test system: NCI-H226
OVCAR-5 = test system: OVCAR-5
SF-268 = test system: SF-268
EKVX = test system: EKVX

Compound	GI50 (U-251)	GI50 (MDA-MB-435)	GI50 (HCT-116)	GI50 (CCRF-CEM)	GI50 (SNB-75)	GI50 (OVCAR-3)	GI50 (HOP-62)	GI50 (SR)	GI50 (MDA-N)	GI50 (SK-MEL-2)	GI50 (SNB-19)	GI50 (T47D)	GI50 (MDA-MB-231)	GI50 (SN12C)	GI50 (HT-29)	GI50 (NCI-H226)	GI50 (OVCAR-5)	GI50 (SF-268)	GI50 (EKVX)
Cc1ccc2nc3ccccc3c(C3C4C(=O)N(c5ccc(Br)cc5Cl)C(=O)C4ON3C(C(N)=O)c3ccccc3)c2c1 (stereo unspecified)	> 25 µM (inactive)	11.1 µM (inactive)	13.7 µM (inactive)	8.13 µM (inactive)	> 25 µM (inactive)	> 25 µM (inactive)	> 25 µM (inactive)	7.26 µM (inactive)	6.9 µM (inactive)	18.1 µM (inactive)	> 25 µM (inactive)	> 25 µM (inactive)	> 25 µM (inactive)	5.47 µM (inactive)	11.2 µM (inactive)	17.2 µM (inactive)	> 25 µM (inactive)	> 25 µM (inactive)	6.56 µM (inactive)
CO[C@H]1C[C@@H]2CC[C@@H](C)[C@@](O)(O2)C(=O)C(=O)N2CCCC[C@H]2C(=O)O[C@H]([C@H](C)C[C@@H]2CC[C@@H](OC(=O)C(C)(CO)CO)[C@H](OC)C2)CC(=O)[C@H](C)/C=C(\C)[C@@H](O)[C@@H](OC)C(=O)[C@H](C)C[C@H](C)/C=C/C=C/C=C/1C [TEMSIROLIMUS]	–	0.0243 µM (active)	3.26 µM (inactive)	0.00177 µM (active)	0.0104 µM (active)	0.00183 µM (active)	0.00125 µM (active)	0.000361 µM (active)	4.03 µM (inactive)	0.051 µM (active)	0.0258 µM (active)	0.000995 µM (active)	0.0217 µM (active)	0.00607 µM (active)	0.0376 µM (active)	0.0116 µM (active)	0.00363 µM (active)	0.00873 µM (active)	0.0185 µM (active)
OC(COc1ccc(Cl)cc1Cl)CN1CCCC1 (stereo unspecified)	> 100 µM (inactive)	74.1 µM (inactive)	87.3 µM (inactive)	87.9 µM (inactive)	50.6 µM (inactive)	58.9 µM (inactive)	> 100 µM (inactive)	64.6 µM (inactive)	56.6 µM (inactive)	> 100 µM (inactive)	> 100 µM (inactive)	> 100 µM (inactive)	> 100 µM (inactive)	> 100 µM (inactive)	24.8 µM (inactive)	88.7 µM (inactive)	> 100 µM (inactive)	> 100 µM (inactive)	21.1 µM (inactive)
C[C@@H]1CCC2[C@@H](C)[C@@H](O[C@H]3O[C@@H]4O[C@@]5(C)CCC6[C@H](C)CCC([C@H]3C)[C@]64OO5)O[C@@H]3O[C@@]4(C)CCC1[C@@]23OO4 (stereo partly specified)	> 25 µM (inactive)	6.97 µM (inactive)	0.659 µM (active)	7.46 µM (inactive)	> 10.8 µM (inactive)	7.45 µM (inactive)	> 25 µM (inactive)	0.724 µM (active)	2.65 µM (inactive)	16 µM (inactive)	> 25 µM (inactive)	1.17 µM (inactive)	> 25 µM (inactive)	16.7 µM (inactive)	1.31 µM (inactive)	> 15.6 µM (inactive)	> 25 µM (inactive)	> 25 µM (inactive)	2.07 µM (inactive)
CSc1ccn(C2CC(F)C(CO)O2)c(=O)n1 (stereo unspecified)	> 100 µM (inactive)	> 100 µM (inactive)	> 100 µM (inactive)	> 100 µM (inactive)	> 100 µM (inactive)	> 100 µM (inactive)	> 100 µM (inactive)	> 100 µM (inactive)	> 100 µM (inactive)	> 100 µM (inactive)	> 100 µM (inactive)	> 100 µM (inactive)	> 100 µM (inactive)	> 100 µM (inactive)	> 100 µM (inactive)	> 100 µM (inactive)	> 100 µM (inactive)	> 100 µM (inactive)	> 100 µM (inactive)
O=c1[nH]nc(-c2ccccc2)n1-n1cnnc1	> 100 µM (inactive)	> 100 µM (inactive)	> 100 µM (inactive)	> 100 µM (inactive)	> 100 µM (inactive)	> 100 µM (inactive)	> 100 µM (inactive)	> 100 µM (inactive)	> 100 µM (inactive)	> 100 µM (inactive)	> 100 µM (inactive)	> 100 µM (inactive)	> 100 µM (inactive)	> 100 µM (inactive)	> 100 µM (inactive)	> 100 µM (inactive)	> 100 µM (inactive)	> 100 µM (inactive)	> 100 µM (inactive)
COC(=N)C1(C#N)NC(c2ccsc2)C(C#N)(C#N)NC1c1ccsc1 (stereo unspecified)	> 100 µM (inactive)	> 100 µM (inactive)	> 100 µM (inactive)	> 100 µM (inactive)	88.5 µM (inactive)	> 100 µM (inactive)	> 100 µM (inactive)	> 100 µM (inactive)	> 100 µM (inactive)	> 100 µM (inactive)	> 100 µM (inactive)	80.2 µM (inactive)	76.7 µM (inactive)	> 100 µM (inactive)	> 100 µM (inactive)	> 100 µM (inactive)	> 100 µM (inactive)	> 100 µM (inactive)	> 100 µM (inactive)
N=C(N)NS(=O)(=O)c1ccc(N/N=C2/CCOC2=O)cc1	41.2 µM (inactive)	> 100 µM (inactive)	> 100 µM (inactive)	> 100 µM (inactive)	21.7 µM (inactive)	> 100 µM (inactive)	26.6 µM (inactive)	70.6 µM (inactive)	> 100 µM (inactive)	> 100 µM (inactive)	> 100 µM (inactive)	49.1 µM (inactive)	> 100 µM (inactive)	65.5 µM (inactive)	> 100 µM (inactive)	> 100 µM (inactive)	> 100 µM (inactive)	45.1 µM (inactive)	> 100 µM (inactive)
COc1ccc(/C=C/c2nsc(/C=C/c3ccc(OC)cc3)n2)cc1	44.7 µM (inactive)	85.1 µM (inactive)	> 100 µM (inactive)	19.3 µM (inactive)	> 100 µM (inactive)	> 100 µM (inactive)	> 100 µM (inactive)	27.3 µM (inactive)	> 100 µM (inactive)	> 100 µM (inactive)	> 100 µM (inactive)	38 µM (inactive)	> 100 µM (inactive)	–	36.5 µM (inactive)	> 100 µM (inactive)	> 100 µM (inactive)	> 100 µM (inactive)	> 100 µM (inactive)
Oc1ccc2cc(Br)ccc2c1-c1c(O)ccc2ccc(Br)cc12	14.1 µM (inactive)	16.2 µM (inactive)	14.4 µM (inactive)	13 µM (inactive)	4.73 µM (inactive)	13.9 µM (inactive)	14.7 µM (inactive)	14.3 µM (inactive)	12.2 µM (inactive)	16 µM (inactive)	15.4 µM (inactive)	12.7 µM (inactive)	10 µM (inactive)	12 µM (inactive)	3.07 µM (inactive)	13.2 µM (inactive)	16.9 µM (inactive)	20 µM (inactive)	–
C=C1C(O)C23CCC4C(C(=O)O)(C(=O)O)CC(OC5OC(CO)C(O)C(OC(=O)CCc6ccccc6)C5NC(=O)CC(C)C)CC4(C)C2CCC1(O)C3 (stereo unspecified)	> 100 µM (inactive)	> 100 µM (inactive)	> 100 µM (inactive)	> 100 µM (inactive)	> 100 µM (inactive)	> 100 µM (inactive)	> 100 µM (inactive)	> 100 µM (inactive)	> 100 µM (inactive)	> 100 µM (inactive)	> 100 µM (inactive)	> 100 µM (inactive)	> 100 µM (inactive)	> 100 µM (inactive)	> 100 µM (inactive)	> 100 µM (inactive)	> 100 µM (inactive)	> 100 µM (inactive)	> 100 µM (inactive)
COc1ccc(-c2nnc(CCCCCCCCc3nnc(-c4ccc(OC)cc4)n3N)n2N)cc1	> 56.9 µM (inactive)	> 100 µM (inactive)	> 66.1 µM (inactive)	> 100 µM (inactive)	37.9 µM (inactive)	> 100 µM (inactive)	28.2 µM (inactive)	> 100 µM (inactive)	> 100 µM (inactive)	> 81.5 µM (inactive)	> 60.3 µM (inactive)	> 100 µM (inactive)	> 57.8 µM (inactive)	> 100 µM (inactive)	> 100 µM (inactive)	> 100 µM (inactive)	> 100 µM (inactive)	> 58.2 µM (inactive)	> 100 µM (inactive)
COc1cc(/C=C/C(=O)c2ccc(NS(=O)(=O)c3cc([N+](=O)[O-])ccc3C)cc2)cc(OC)c1OC	3.37 µM (inactive)	3.71 µM (inactive)	2.38 µM (inactive)	2.2 µM (inactive)	4.39 µM (inactive)	3.15 µM (inactive)	2.99 µM (inactive)	1.82 µM (inactive)	3.62 µM (inactive)	2.67 µM (inactive)	3.85 µM (inactive)	12.1 µM (inactive)	2.59 µM (inactive)	1.87 µM (inactive)	4.38 µM (inactive)	2.97 µM (inactive)	4.37 µM (inactive)	–	5.36 µM (inactive)
C=C1C2CCC3C4(C)CCCC(C)(C(=O)O)C4CCC3(C2)C1OC(=O)/C(C)=C/C (stereo unspecified)	30.7 µM (inactive)	34 µM (inactive)	38.5 µM (inactive)	53.2 µM (inactive)	70.8 µM (inactive)	19.8 µM (inactive)	45.6 µM (inactive)	2.98 µM (inactive)	22.6 µM (inactive)	36.1 µM (inactive)	–	43 µM (inactive)	20.9 µM (inactive)	23 µM (inactive)	33.4 µM (inactive)	36 µM (inactive)	28.4 µM (inactive)	38.7 µM (inactive)	35.1 µM (inactive)
